Entries after “also recorded” stand apart in the source; their conditions may differ. Where two headings read alike, the source gives them in different places.

Results on two compounds are retold here after patent US20110117055A1, “Methods of Treating Hepatitis C Virus with Oxoacetamide Compounds” (priority 2009, published 2011).

The test system of series [1] is HCV2aCh (E2:G451R) mutant virus. Briefly: E2:G451R mutant virus infectivity, luciferase assay. It counts as cell-based, HCV genotype 2a. The settings on record: E2:G451R vs parental. From the text: Since SR-B1 is also known to be one of the essential cellular receptors required for HCV entry, we were interested to know if Compounds 1 and 5 inhibits HCV entry via SR-B1. HCV E2 protein interaction with SR-B1 is believed to occur via hypervariable region 1 located within the N-terminal region of the E2 glycoprotein. Zhong and colleagues reported that a glycine-to-arginine mutation at position 451 (G451R) in E2 promoted JFH-1 infectivity (J. Viol. 2006, 80:11082). […] We introduced the E2:G451R mutation into the backbone of HCV2aCh (FIG. 13a) to test whether this mutation may alter the inhibitory effect of Compounds 1 and 5 on HCV entry mediated by SR-B1.

The subject of series [2] is Jc1-luc virus. In words: Luciferase compound activity assay, Jc1-luc virus in Huh7.5.1 cells. In kind it is cell-based, HCV genotype-2a. The settings on record: Jc1-luc; ± standard error of the mean. How it is done: Cell culture. Human hepatoma Huh-7.5.1 cells or Huh7 cells were grown at 37° C. and 5% CO2 in Dulbecco's modification of Eagle's medium supplemented with 2 mM L-glutamine, 1 mM Sodium pyruvate, 1× Non-essential amino acids mix, 100 units/ml penicillin, 100 μg/ml streptomycin, and 10% fetal bovine serum.
Virus plasmids. The chimeric full-length construct pFL-JC1, a GT2a/2a chimera consisting of structural genes from the J6CF isolate and non-structural genes from the JFH1 isolate, has been described previously. See Backes et al., J. Virol. 2010, 84:5775-89; Schaller et al., J. Virol., 2007, 81:4591-603; Koutsoudakis et al., J. Virol. 2006, 80:5308-20; Pietschmann et al., Proc. Natl. Acad. Sci., 2006, 103:7408-13. The firefly luciferase gene has been inserted to pFL-Jc1 to develop a plamid pFL-Jc1-luc for use as a reporter of viral replication. See Amako et al., J. Virol. 2009, 83:9237-46. Specifically, the pFL-JC1-luc construct can be utilized to develop an infectious HCV cell culture system to test novel HCV inhibitors, including entry inhibitors, in vitro using luciferase expression.
Preparation of infectious HCV. Jc1-luc or HCV2a/2aChRluc RNA was in vitro transcribed using T7 RiboMAX™ Express Large Scale RNA Production System (Promega). After RNA clean up (Qiagen RNeasy Mini kit), transfection was performed as previously described.
400 microliters of a Huh-7.5.1 or Huh7 cell suspension (10^7 cells/ml) was placed in a 0.4-cm cuvette with 10 μg of Jc1-luc or HCV2a/2aChRluc RNA and electroporated (Bio-Rad Gene Pulser System) using a single square wave at 260 V and 25 ms pulse length. The cells were plated in 15-cm tissue culture dishes (Corning) and supernatant was harvested and concentrated using a centrifugal filter (Amicon 100K, Millipore).
Luciferase compound activity assay. Cell culture and luciferase compound assays were performed as previously described. See Wyles et al., J. Virol. 2007, 81:3005-8; Wyles et al., Antimicrob Agents Chemother. 2009, 53:2660-2; Grünberger et al., J. Infect. Dis. 2008, 197:42-5; Wyles et al., Antimicrob Agents Chemother, 2008, 52:1862-4. Briefly, Huh7.5.1 cells were seeded into 96-well plates at a density of 10,000 cells per well in 100 μl medium. After incubating overnight for attachment, Jc1-luc virus at an MOI 0.01 was added to wells with or without compounds at the specified concentrations. All conditions were run in triplicate. After 24 hours, medium was aspirated and replaced with 100 μl of complete medium containing an identical concentration of compound(s) followed by additional 48 hour incubation. The luciferase assay (Bright-Glo; Promega) was carried out according to the manufacturer's instructions. Luciferase activity was determined using a microplate luminometer (Veritas microplate luminometer; Turner Biosystems). […]

Series [3] concerns HCV genotype 1b subgenomic replicon. In words: HCV replicon assay (HCV1b replicon cells, NS5A ELISA). It counts as cell-based. The settings on record: 3 days. The method, then:
Alternatively, Hut1b cells (Huh7 cells stably replicating HCV genotype 1b subgenomic replicon) were treated with serial dilutions of the test compound for 72 hours. Replication efficiency was monitored by ELISA assay using anti-HCV NS5A monoclonal antibody (Virogen).
Increasing amounts of compound were inoculated onto HCV1b replicon cells and incubated for 3 days. Following incubation, HCV replication was monitored with NS5A protein expression by ELISA.
A general note: Replicon systems follow genome replication, usually without infectious particles.

In series [4] the test system is Huh7.5.1 cells.
Series [5] has as its system HCV. Briefly: Combination of viral entry inhibitor with IFN-α, HCVcc infection system, luciferase assay. In kind it is cell-based. The settings on record: Huh7 cells, 72 hrs. How it is done: The current standard of care for the treatment of chronic hepatitis C is the combination of pegylated IFN-α (interferon-alpha) and ribavirin. […] Huh7 cells were incubated with various concentrations of Compound 1 or interferon alone, or combinations of both for 72 hrs, and the anti-HCV activity was measured by luciferase assays. The same was experiment was performed for Compound 5.

Series [6] has as its system HCV. Briefly: Combination of viral entry inhibitor with HCV protease inhibitor VX-950. In kind it is cell-based. The settings on record: fixed ratio based on EC50.
Procedure: Additional combination studies of Compound 1 and Compound 5 with the HCV NS3 protease inhibitor VX-950 were conducted. Compound 1 and Compound 5 were tested singly and in combination with VX-950. The ratio of the two compounds, based on the compound's EC50, remained fixed across the dosing range. The potential cytotoxicity of individual compounds was assessed with a luminescent ATP-based cell viability assay (Cell Titer-Glo; Promega). Cell culture and luciferase compound assays were performed as previously described in Example 3.
Compound interactions were quantified by the approach described by Chou and Talalay, relying on the median effect principle and the multiple-drug effect equation. […] Isobolograms were generated for each combination tested and were used to determine the additivity, synergism or antagonism of inhibitor combinations. Combination indices (CI) were determined with Calcusyn (Biosoft) for each experiment at the EC50, EC75, and EC90 of the combination. By convention, a CI of <0.9 was considered synergistic, a CI of ≧0.9 or ≦1.1 was considered additive, and a CI of >1.1 was deemed antagonistic. […] Combination indices (CI) were determined with Calcusyn (Biosoft) for each experiment at the EC50, EC75, and EC90 of the combination. By convention, a CI of <0.9 was considered synergistic, a CI of ≧0.9 or ≦1.1 was considered additive, and a CI of >1.1 was deemed antagonistic.
Series [7] has as its system HCV2aChLuc virus. Briefly: In vitro HCVcc entry assay: HCV2aChLuc virus infection of Huh7 cells, Renilla luciferase read-out. In kind it is cell-based, HCV genotype 2a. The settings on record: for IC50: Hepatitis C virus.
Series [8] has as its system Bovine viral diarrhea virus (BVDV). In words: BVDV plaque-forming assay in MDBK cells. In kind it is cell-based. The settings on record: even at 1 μM. How it is done:
Bovine viral diarrhea virus (BVDV) is a closely related virus to HCV, belonging to the same Family, Flaviviridae. To validate the specificity of antiviral activity, BVDV infection was done with MDBK cells in the presence of compounds provided herein. MDBK cells (70 to 80% confluent) were infected with a diluted virus. Following 1 h of adsorption at 37° C., cells were washed once with DMEM, overlaid with 1.5% low-melting-point (LMP) agarose (Gibco-BRL) in MEM containing 5% HS, and incubated at 37° C. To assay for plaque-forming virus, after 3 days monolayers were fixed with 3.7% formaldehyde for 2 h at room temperature, the agarose plugs were removed, and the monolayers were stained with crystal violet.

Series [9] concerns HCV1a/2a chimeric virus. Briefly: HCV entry assay with HCV1a/2a chimeric virus. In kind it is cell-based, HCV genotype 1a. The settings on record: compared with HCV2a chimeric virus. From the text:
Since HCV genotype 1 is the most prevalent genotype among the variants of HCV, we constructed an HCV1a/2a chimeric infectious clone with two cell-culture adaptive mutations introduced. Sequences for the structural proteins (including C, E1, and E2), p7, and NS2 were derived from HCV genotype 1a H77 strain. The rest of nonstructural proteins (NS3 to NS5B) and 3′ NTR were derived from HCV genotype 2a JFH strain. 5′NTR was originated from HCV2aJ6 (FIG. 7). […] Therefore, both HCV1a/2aCh virus and HCV1a/2aChLuc virus with Y361H and Q1251L mutations were successively produced in Huh7 cells and used for HCV entry assay.

In series [10] the test system is HCV1a chimeric virus and 2a chimeric virus. Briefly: Combination of viral entry inhibitor with ribavirin. In kind it is cell-based, HCV. The settings on record: ribavirin 15 μM. The method, then: Varying amounts of each compound were coincubated with a high concentration of ribavirin (15 μM).
Series [11] deals with HCV2aChLuc (NS3:A156S). In words: Infectivity of protease mutant virus versus wild type in the presence of compounds. In kind it is cell-based, HCV genotype 2a. The settings on record: HCV2aChLuc (NS3:A156S) vs wild type HCV2aChLuc. From the text:
Therefore, we introduced A156S mutation in the backbone of HCV2aChLuc genome and investigated the infectivity of the mutant virus in the presence of compounds.

IFN-α: in [1], the “sensitivity of E2 mutant virus relative to parental virus, luciferase assay for viral infectivity” value was “very identical patterns”. In series [2], the EC50 was found to be 3.01 ± 0.39 IU/ml. For the same compound, the “effect on HCV replication (NS5A protein expression by ELISA)” value in [3] was “dose dependent inhibition”. Moreover, the CC50 in series [4] is greater than 100 IU/ml.
As a reminder, the IC50 is the concentration at which inhibition is half-maximal. For `COc1ccc(C(C)(C)C)cc1NC(=O)C(=O)c1ccc(OCCN2CCOCC2)c2ccccc12` [Compound 1, N-(5-tert-butyl-2-methoxyphenyl)-2-(4-(2-morpholinoethoxy)naphthalen-1-yl)-2-oxoacetamide], the “effect of combination with IFN-α on inhibition of HCV infection in cell culture” value in [5] was “additive to moderate synergistic effect”. Also, the “sensitivity of E2 mutant virus relative to parental virus, luciferase assay for viral infectivity” value in series [1] was “greater resistance”. Besides, the “effect of combination with VX-950” value in series [6] is reported as “additive to slightly synergistic effects”. Besides, the IC50 was 0.2 to 2 nM in [7] (Huh-7, 72 h, read-out: observed IC50, Huh7 cells co-incubated with HCV2aChRluc virus and compound for 3 days, repeated assays (n>30)); less than 5 nM in series [7] (Huh-7, read-out: Activity class (IC50), tested according to the method of Example 3). Besides, the “inhibitory effect on HCV2aChLuc viral entry” value in [7] (Huh7 cells, 3 days) is given as “dose-dependent inhibitory effect; also recorded: dose-dependent inhibition”. Moreover, the “inhibitory effect on BVDV infection” value in series [8] was “no measurable inhibitory effect”. For the same compound, in [9], the “inhibition of HCV1a chimeric virus” value is “inhibited”. Besides, in [3], the “effect on HCV replication (NS5A protein expression by ELISA)” value is “did not measurably inhibit; also recorded: no measurable effect”. The “effect of combination with ribavirin” value in [10] is listed as “no antagonistic effect”. In addition, the “resistance of NS3:A156S mutant virus versus wild type (inhibition of infectivity)” value in [11] was “no significant difference”.
